Columns and labels:
ZAC = molecular target: T1, ZAC (Homo sapiens, UniProt Q401N2); assay: FMP assay at ZAC-HEK293 cells; format: cell-based
T1 sequence (Q401N2 26-412): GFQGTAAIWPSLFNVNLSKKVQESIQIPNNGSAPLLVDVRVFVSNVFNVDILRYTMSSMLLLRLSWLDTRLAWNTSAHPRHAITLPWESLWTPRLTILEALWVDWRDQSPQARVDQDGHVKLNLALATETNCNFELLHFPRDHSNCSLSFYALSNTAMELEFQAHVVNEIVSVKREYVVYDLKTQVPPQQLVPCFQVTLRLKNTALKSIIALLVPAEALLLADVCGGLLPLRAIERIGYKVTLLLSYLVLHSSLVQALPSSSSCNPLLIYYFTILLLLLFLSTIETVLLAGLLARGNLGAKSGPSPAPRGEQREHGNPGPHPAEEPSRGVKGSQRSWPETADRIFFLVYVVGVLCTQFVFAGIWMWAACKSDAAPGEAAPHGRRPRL
Experimental: The screening of the 1,680 compounds in the compound library for antagonist activity at the ZAC-HEK293 cell line was performed in the FMP assay essentially as previously described. The day before the assay, cells were split into poly-D-lysine-coated black 96-well plates with clear bottoms (BD Biosciences, Palo Alto, CA) (6 × 10^4 cells/well). The following day, the culture medium was aspirated and the wells were washed once with 100 μl assay buffer (140 mM NaCl, 4.7 mM KCl, 2.5 mM CaCl2, 1.2 mM MgCl2, 11 mM HEPES, 10 mM D-glucose, pH 7.4), after which 100 μl assay buffer supplemented with FMP dye (0.5 mg/ml) and the various test compounds were added to the wells. The plate was then incubated at 37 °C for 30 min and assayed in a NOVOStar plate reader (BMG Labtechnologies, Offenburg, Germany) measuring emission at 560 nm caused by excitation at 530 nm before and up to 1 min after the addition of 33 μl of agonist solution. In the screening, the 1,680 compounds in the compound library were tested at assay concentrations in the 10–30 μM range, using Cu^2+ as agonist at an assay concentration of 200 μM.
Data from the FMP assay was analysed using KaleidaGraph 3.08 (Synergy Software, Reading, PA). Concentration-response curves for Cu^2+ and concentration-inhibition curves for compound 1 were constructed based on the difference in the relative fluorescence units (RFU) between the maximal fluorescence recorded before and after application of Cu^2+. The data were fitted to sigmoidal curves with variable slopes using nonlinear regression, and EC50 (Cu^2+) and IC50 (compound 1) values were derived from these equations.

hEAAT3 = molecular target: T2, hEAAT3 (Homo sapiens, UniProt P43005); assay: FMP assay at hEAAT3-HEK293 cells (glutamate-induced response); format: cell-based; conditions: concentrations up to 100 μM, data not shown
T2 construct: expressed in transfected cells
T2 sequence (P43005 1-524): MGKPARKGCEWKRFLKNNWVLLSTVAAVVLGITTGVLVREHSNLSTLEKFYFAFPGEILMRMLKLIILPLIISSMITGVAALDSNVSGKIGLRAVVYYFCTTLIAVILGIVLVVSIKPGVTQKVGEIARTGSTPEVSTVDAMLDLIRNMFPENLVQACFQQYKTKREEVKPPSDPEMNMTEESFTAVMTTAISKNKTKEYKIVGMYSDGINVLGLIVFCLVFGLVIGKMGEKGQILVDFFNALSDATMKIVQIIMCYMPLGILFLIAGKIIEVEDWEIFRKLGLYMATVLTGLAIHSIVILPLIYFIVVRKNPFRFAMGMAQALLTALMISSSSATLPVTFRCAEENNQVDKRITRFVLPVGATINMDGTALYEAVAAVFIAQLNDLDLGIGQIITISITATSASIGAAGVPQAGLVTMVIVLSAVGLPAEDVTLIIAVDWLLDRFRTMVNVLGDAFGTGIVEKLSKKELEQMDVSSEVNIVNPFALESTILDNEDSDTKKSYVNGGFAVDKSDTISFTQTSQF

COC(=O)c1sc(NC(=O)c2cc(Br)ccc2Cl)nc1C [compound 1, 2-(5-bromo-2-chlorobenzamido)-4-methylthiazole-5-methyl ester]
IC50 (ZAC): 6.1 µM | Effect on glutamate-induced response (hEAAT3): did not affect

Reference: paper PMC9979163, “Discovery and functional characterization of N-(thiazol-2-yl)-benzamide analogs as the first class of selective antagonists of the Zinc-Activated Channel (ZAC)” (Biochemical pharmacology, 2021)
